Measurements as given in US8399681B2, “Substituted aminothiazolone indazoles as estrogen related receptor-alpha modulators” (Janssen Pharmaceutica NV, priority 2009, dated 2013).

Target: T1, ERR1 (also known as ERR-α or ERR-1) (Homo sapiens, UniProt P11474)
T1 sequence (P11474 193-421 limits assumed): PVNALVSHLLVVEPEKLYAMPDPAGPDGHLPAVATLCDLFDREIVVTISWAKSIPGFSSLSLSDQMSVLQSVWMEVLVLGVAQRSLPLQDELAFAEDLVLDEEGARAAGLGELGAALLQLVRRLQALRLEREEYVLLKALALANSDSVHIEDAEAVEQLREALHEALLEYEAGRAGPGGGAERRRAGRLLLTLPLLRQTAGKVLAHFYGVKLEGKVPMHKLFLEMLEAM
Assay: TR-FRET assay (disruption of co-activator peptide binding)
Assay type: biochemical
Settings: 6His-tagged ERR1 LBD, GST-hSRC2 co-activator polypeptide; average of 3 independent experiments
Description: Time-Resolved Fluorescence Resonance Energy Transfer (TR-FRET) experiments were performed to examine the functional response of ERR1 (also known as ERR-α or ERR-1) ligands. The TR-FRET assay described herein relied on the conformation of ERR1 for binding to a co-activator peptide: when a test compound binds to ERR1 and alters its conformation, it can disrupt the binding of the co-activator peptide. The components of this homogeneous secondary assay included: the ^6His-tagged-ERR1LBD, a GST-labeled-hSRC2 co-activator polypeptide and a fluorescent donor/acceptor pair from CIS bio international htrf/bioassays (Bedford, Mass.) using both an α-GST Europium Cryptate (Eu) label and an α^6His-XL665 (allophycocyanin) fluorophore.
For TR-FRET measurements, the reaction was buffered in 25 mM Tris pH 8, 2.5 mM Hepes, 20 mM KCl, 1 mM DTT, and 0.05 mg/mL BSA (-lipids). The final concentrations of reagents were 6 nM of ERR1LBD, 6 nM GST-SRC-2 peptide, 30 nM Eu cryptate, and 7.5 nM XL665. Reactions were allowed to reach equilibrium at 25° C. for 4-18 hours before collecting data on the Analyst from LJL Biosystems (Molecular Devices Sunnyvale, Calif.). As a time-resolved method, the samples were excited at […] and emission was collected for 1 ms at both 615 and 665 nm with delays of 400 and 75 μs, respectively. Dose response curves were fitted using a hyperbolic equation and the data reported is the average of 3 independent experiments.

EC50 [nM]	Structure (SMILES)
9	CONC(=O)C1CN(C2=NC(=O)/C(=C/c3ccc4c(cnn4Cc4ccc(Cl)cc4C(F)(F)F)c3)S2)CCN1 (stereo not shown) [Example 271, 4-[5-({1-[4-Chloro-2-(trifluoromethyl)benzyl]-1H-indazol-5-yl}methylidene)-4-oxo-4,5-dihydro-1,3-thiazol-2-yl]-N-methoxypiperazine-2-carboxamide]
96	N[C@@H]1C[C@H](CO)N(C2=NC(=O)/C(=C/c3ccc4c(cnn4Cc4ccc(Cl)cc4C(F)(F)F)c3)S2)C1 [Example 257, 2-[(2R,4R)-4-Amino-2-(hydroxymethyl)pyrrolidin-1-yl]-5-({1-[4-chloro-2-(trifluoromethyl)benzyl]-1H-indazol-5-yl}methylidene)-1,3-thiazol-4(5H)-one]
42	CC(C)N[C@@H]1C[C@H](CO)N(C2=NC(=O)/C(=C/c3ccc4c(cnn4Cc4ccc(Cl)cc4C(F)(F)F)c3)S2)C1 [Example 263]
7	CN1CCN(C2=NC(=O)/C(=C/c3ccc4c(cnn4Cc4ccc(Cl)cc4C(F)(F)F)c3)S2)CC1(C)C [Example 221, 5-({1-[4-Chloro-2-(trifluoromethyl)benzyl]-1H-indazol-5-yl}methylidene)-2-(3,3,4-trimethylpiperazin-1-yl)-1,3-thiazol-4(5H)-one]
230	CC(C)(O)c1ccc(Cn2ncc3cc(/C=C4\SC(N5CCN[C@@H](CO)C5)=NC4=O)ccc32)c(C(F)(F)F)c1 [Example 246, 5-({1-[4-(1-Hydroxy-1-methylethyl)-2-(trifluoromethyl)benzyl]-1H-indazol-5-yl}methylidene)-2-[3-(R)-(hydroxymethyl)piperazin-1-yl]-1,3-thiazol-4(5H)-one]
27	N#Cc1nn(Cc2ccc(C(F)(F)F)cc2C(F)(F)F)c2ccc(/C=C3\SC(N4CCN[C@@H](CO)C4)=NC3=O)cc12 [Example 217, 1-[2,4-Bis(trifluoromethyl)benzyl]-5-({2-[3-(R)-(hydroxymethyl)piperazin-1-yl]-4-oxo-1,3-thiazol-5(4H)-ylidene}methyl)-1H-indazole-3-carbonitrile]
3	CC(=O)OC[C@@H]1CN(C2=NC(=O)/C(=C/c3ccc4c(cnn4Cc4ccc(C(F)(F)F)cc4C(F)(F)F)c3)S2)CCO1 [Example 280, {(2S)-4-[5-({1-[2,4-Bis(trifluoromethyl)benzyl]-1H-indazol-5-yl}methylidene)-4-oxo-4,5-dihydro-1,3-thiazol-2-yl]morpholin-2-yl}methyl acetate]
30	CC(=O)N[C@@H]1C[C@H](CO)N(C2=NC(=O)/C(=C/c3ccc4c(cnn4Cc4ccc(C(F)(F)F)cc4C(F)(F)F)c3)S2)C1 [Example 259, N-{1-[(3R,5R)-5-({1-[2,4-Bis(trifluoromethyl)benzyl]-1H-indazol-5-yl}methylidene)-4-oxo-4,5-dihydro-1,3-thiazol-2-yl]-5-(hydroxymethyl)pyrrolidin-3-yl}acetamide]

More lines, now with the values behind:

Structure (SMILES)	EC50 [nM]
O=C1N=C(N2CCC(c3nnn[nH]3)CC2)S/C1=C\c1ccc2c(cnn2Cc2ccc(Cl)cc2C(F)(F)F)c1 [Example 110, 5-[1-(4-Chloro-2-trifluoromethyl-benzyl)-1H-indazol-5-ylmethylene]-2-[4-(1H-tetrazol-5-yl)-piperidin-1-yl]-thiazol-4-one]	18.6
CC1(C(=O)O)CCN(C2=NC(=O)/C(=C/c3ccc4c(cnn4Cc4ccc(Cl)cc4C(F)(F)F)c3)S2)CC1 [Example 75, 1-{5-[1-(4-Chloro-2-trifluoromethyl-benzyl)-1H-indazol-5-ylmethylene]-4-oxo-4,5-dihydro-thiazol-2-yl}-4-methyl-piperidine-4-carboxylic acid]	73.4
COc1ccc(Cn2ncc3cc(/C=C4\SC(N5CC(C(=O)O)C5)=NC4=O)ccc32)c(C(F)(F)F)c1 [Example 33, 1-{5-[1-(4-M ethoxy-2-trifluoromethyl-benzyl)-1H-indazol-5-ylmethylene]-4-oxo-4,5-dihydro-thiazol-2-yl}-azetidine-3-carboxylic acid]	4.4
O=C1N=C(N2CCN(CCO)CC2)S/C1=C\c1ccc2c(cnn2Cc2ccc(C(F)(F)F)cc2C(F)(F)F)c1 [Compound 6, 5-[1-(2,4-Bis-trifluoromethyl-benzyl)-1H-indazol-5-ylmethylene]-2-[4-(2-hydroxy-ethyl)-piperazin-1-yl]-thiazol-4-one]	9
O=C1N=C(N2CCCN(CCO)CC2)S/C1=C\c1ccc2c(cnn2Cc2ccc(Cl)cc2C(F)(F)F)c1 [Example 76, 5-[1-(4-Chloro-2-trifluoromethyl-benzyl)-1H-indazol-5-ylmethylene]-2-[4-(2-hydroxy-ethyl)-[1,4]diazepan-1-yl]-thiazol-4-one]	18.3
CN(C)CC1CN(C2=NC(=O)/C(=C/c3ccc4c(cnn4Cc4ccc(C(F)(F)F)cc4C(F)(F)F)c3)S2)CCO1 (stereo not shown) [Example 171, 5-[1-(2,4-Bis-trifluoromethyl-benzyl)-1H-indazol-5-ylmethylene]-2-(2-dimethylaminomethyl-morpholin-4-yl)-thiazol-4-one]	38
O=C1N=C(N2CCN(C3CC3)CC2)S/C1=C\c1ccc2c(cnn2Cc2ccc(Cl)cc2C(F)(F)F)c1 [Example 121, 5-[1-(4-Chloro-2-trifluoromethyl-benzyl)-1H-indazol-5-ylmethylene]-2-(4-cyclopropyl-piperazin-1-yl)-thiazol-4-one]	25.3
O=C1N=C(N2CCNCC2)S/C1=C\c1ccc2c(cnn2Cc2ccc(C(F)(F)F)cc2C(F)(F)F)c1 [Compound 7, 5-[1-(2,4-Bis-trifluoromethyl-benzyl)-1H-indazol-5-ylmethylene]-2-piperazin-1-yl-thiazol-4-one]	38
N[C@H]1CCCN(C2=NC(=O)/C(=C/c3ccc4c(cnn4Cc4ccc(Cl)cc4C(F)(F)F)c3)S2)C1 [Example 60, 2-(3-(S)-Amino-piperidin-1-yl)-5-[1-(4-chloro-2-trifluoromethyl-benzyl)-1H-indazol-5-ylmethylene]-thiazol-4-one]	19.7
CN1CCN(C2=NC(=O)/C(=C/c3ccc4c(cnn4Cc4ccc(Cl)cc4I)c3)S2)CC1 [Example 96, 5-[1-(4-Chloro-2-iodo-benzyl)-1H-indazol-5-ylmethylene]-2-(4-methyl-piperazin-1-yl)-thiazol-4-one]	64
COCC(=O)N1CCN(C2=NC(=O)/C(=C/c3ccc4c(cnn4Cc4ccc(Cl)cc4C(F)(F)F)c3)S2)[C@H](C)C1 [Example 90, 5-[1-(4-Chloro-2-trifluoromethyl-benzyl)-1H-indazol-5-ylmethylene]-2-[4-(2-methoxy-acetyl)-2-(R)-methyl-piperazin-1-yl]-thiazol-4-one]	3.4
O=C1CCN(C2=NC(=O)/C(=C/c3ccc4c(cnn4Cc4ccc(Cl)cc4C(F)(F)F)c3)S2)CCN1 [Example 114, 1-{5-[1-(4-Chloro-2-trifluoromethyl-benzyl)-1H-indazol-5-ylmethylene]-4-oxo-4,5-dihydro-thiazol-2-yl}-[1,4]diazepan-5-one]	13
COc1ccc(Cn2ncc3cc(/C=C4\SC(N5CCC[C@@H]5C(=O)O)=NC4=O)ccc32)c(C(F)(F)F)c1 [Example 45, 1-{5-[1-(4-M ethoxy-2-trifluoromethyl-benzyl)-1H-indazol-5-ylmethylene]-4-oxo-4,5-dihydro-thiazol-2-yl}-pyrrolidine-2-(R)-carboxylic acid]	34
CN1C2CCC1CN(C1=NC(=O)/C(=C/c3ccc4c(cnn4Cc4ccc(C(F)(F)F)cc4C(F)(F)F)c3)S1)C2 [Example 103, 5-[1-(2,4-Bis-trifluoromethyl-benzyl)-1H-indazol-5-ylmethylene]-2-(8-methyl-3,8-diaza-bicyclo[3.2.1]oct-3-yl)-thiazol-4-one]	12.2
CC[C@H]1CN(C2=NC(=O)/C(=C/c3ccc4c(cnn4Cc4ccc(C(F)(F)F)cc4C(F)(F)F)c3)S2)CCN1 [Example 124, 5-[1-(2,4-Bis-trifluoromethyl-benzyl)-1H-indazol-5-ylmethylene]-2-(3-ethyl-piperazin-1-yl)-thiazol-4-one]	9
O=C1N=C(N2CCC(n3cncn3)CC2)S/C1=C\c1ccc2c(cnn2Cc2ccc(Cl)cc2C(F)(F)F)c1 [Example 158, 5-[1-(4-Chloro-2-trifluoromethyl-benzyl)-1H-indazol-5-ylmethylene]-2-(4-[1,2,4]triazol-1-yl-piperidin-1-yl)-thiazol-4-one]	32
CC(=O)NC1CCN(C2=NC(=O)/C(=C/c3ccc4c(cnn4Cc4ccc(C(F)(F)F)cc4C(F)(F)F)c3)S2)CC1 [Example 108, N-(1-{5-[1-(2,4-Bis-trifluoromethyl-benzyl)-1H-indazol-5-ylmethylene]-4-oxo-4,5-dihydro-thiazol-2-yl}-piperidin-4-yl)-acetamide]	30.2
